The nature of series [1]: Oral bioavailability in human. The class given is ADME, organism-based. The conditions noted are these: in vivo.
Series [2] can be described thus: Half life in human. The class given is ADME.
Series [3] is described as follows: Absolute bioavailability in human. In kind it is ADME, organism-based. The conditions noted are these: in vivo.
Series [4] can be described thus: Drug excretion in human feces assessed as daclatasvir level. The class given is ADME, tissue-based. The conditions noted are these: faeces, read-out: Drug excretion.
The nature of series [5]: Drug excretion in human feces assessed as ombitasvir level. In kind it is ADME, tissue-based. The conditions noted are these: faeces, read-out: Drug excretion.
The nature of series [6]: Oral bioavailability in human under fed condition. The class given is ADME, organism-based. The conditions noted are these: in vivo.
Series [7] in a line: Half life in HIV infected human. In kind it is ADME.
Series [8] can be described thus: Drug excretion in human feces assessed as dasabuvir level. The class given is ADME, tissue-based. The conditions noted are these: faeces, read-out: Drug excretion.

Each structure is given as a SMILES string.

Usually bioavailability stands for dose-corrected exposure relative to a reference, in per cent. For orientation: half-life means the time needed for the level to fall by half in the phase considered. Low values mean rapid decline, high ones slow decline.

As for `COC(=O)N[C@H](C(=O)N1CC2(CC2)C[C@H]1c1ncc(-c2ccc3c(c2)C(F)(F)c2cc(-c4ccc5nc([C@@H]6[C@H]7CC[C@H](C7)N6C(=O)[C@@H](NC(=O)OC)C(C)C)[nH]c5c4)ccc2-3)[nH]1)C(C)C` [LEDIPASVIR], the bioavailability in series [1] was 76%. Also, the half-life in series [2] was 47 h. On to `COC(=O)N[C@H](C(=O)N1CCC[C@H]1c1nc(-c2ccc3c(c2)O[C@@H](c2ccccc2)n2c-3cc3cc(-c4c[nH]c([C@@H]5CCCN5C(=O)[C@@H](NC(=O)OC)C(C)C)n4)ccc32)c[nH]1)C(C)C` [ELBASVIR], for which the half-life in series [2] is 24 h. As to `Cc1cnc(C(=O)N[C@H]2CCCCC/C=C\[C@@H]3C[C@@]3(C(=O)NS(=O)(=O)C3CC3)NC(=O)[C@@H]3C[C@@H](Oc4nc5ccccc5c5ccccc45)CN3C2=O)cn1` [PARITAPREVIR], the half-life in series [2] was 5.5 h. In series [3], this compound registered a bioavailability of 53%.

In series [2], `CC(C)(C)[C@@H]1NC(=O)O[C@@H]2CCC[C@H]2OC/C=C/C(F)(F)c2nc3ccccc3nc2O[C@@H]2C[C@@H](C(=O)N[C@]3(C(=O)NS(=O)(=O)C4(C)CC4)C[C@H]3C(F)F)N(C2)C1=O` [GLECAPREVIR] gave a half-life of 6 h.

In series [2], `COC[C@H]1C[C@@H](c2ncc(-c3ccc4c(c3)COc3cc5c(ccc6nc([C@@H]7CC[C@H](C)N7C(=O)[C@@H](NC(=O)OC)C(C)C)[nH]c65)cc3-4)[nH]2)N(C(=O)[C@H](NC(=O)OC)c2ccccc2)C1` [VELPATASVIR] gave a half-life of 15 h. In the case of `C=C[C@@H]1C[C@]1(NC(=O)[C@@H]1C[C@@H]2CN1C(=O)[C@H](C(C)(C)C)NC(=O)O[C@@H]1C[C@H]1CCCCCc1nc3ccc(OC)cc3nc1O2)C(=O)NS(=O)(=O)C1CC1` [GRAZOPREVIR ANHYDROUS], the half-life in series [2] was 31 h. Turning to `COC(=O)N[C@H](C(=O)N1CCC[C@H]1c1nc(-c2ccc(-c3ccc(-c4c[nH]c([C@@H]5CCCN5C(=O)[C@@H](NC(=O)OC)C(C)C)n4)cc3)cc2)c[nH]1)C(C)C` [DACLATASVIR], in series [4], the dose excreted came out at 53%. In series [1], the bioavailability turned out to be 67%. This compound registered a half-life in series [2] of 12 to 15 h. Turning to `CC(C)OC(=O)[C@H](C)N[P@](=O)(OC[C@H]1O[C@@H](n2ccc(=O)[nH]c2=O)[C@](C)(F)[C@@H]1O)Oc1ccccc1` [SOFOSBUVIR], in series [1], the bioavailability came to 92%. The compound further gave a half-life in series [2] of 0.4 h.

As to `COC(=O)N[C@H](C(=O)N1CCC[C@H]1C(=O)Nc1ccc([C@@H]2CC[C@@H](c3ccc(NC(=O)[C@@H]4CCCN4C(=O)[C@@H](NC(=O)OC)C(C)C)cc3)N2c2ccc(C(C)(C)C)cc2)cc1)C(C)C` [OMBITASVIR], the dose excreted in series [5] was determined as 90.2%. In series [2], this compound had a half-life of 21 to 25 h. Besides, the bioavailability in series [3] amounted to 48%. As to `COc1ccc2c(O[C@@H]3C[C@H]4C(=O)N[C@]5(C(=O)NS(=O)(=O)C6CC6)C[C@H]5/C=C\CCCCN(C)C(=O)[C@@H]4C3)cc(-c3nc(C(C)C)cs3)nc2c1C` [SIMEPREVIR], in series [6], the bioavailability came out at 62%. In addition, the half-life in series [7] is 41 h; in series [2], 10 to 13 h.

In the case of `COc1c(-c2ccc3cc(NS(C)(=O)=O)ccc3c2)cc(-n2ccc(=O)[nH]c2=O)cc1C(C)(C)C` [DASABUVIR], the dose excreted in series [8] stood at 26.2%. This compound came in with a half-life in series [2] of 5.5 to 6 h. This compound also gave a bioavailability in series [3] of 70%. In series [2], `COC(=O)N[C@H](C(=O)N1CCC[C@H]1c1nc2cc([C@H]3CC[C@H](c4cc5nc([C@@H]6CCCN6C(=O)[C@@H](NC(=O)OC)[C@@H](C)OC)[nH]c5cc4F)N3c3cc(F)c(N4CCC(c5ccc(F)cc5)CC4)c(F)c3)c(F)cc2[nH]1)[C@@H](C)OC` [PIBRENTASVIR] had a half-life of 23 to 29 h. For the compound `C[C@@]1(F)[C@H](O)[C@@H](CO)O[C@H]1n1ccc(=O)[nH]c1=O`, the half-life in series [2] is 27 h.
